This is an account of results in BindingDB's records for doi:10.1016/j.ejmech.2018.08.031 (Wenzhou Medical University, 2018).

Each structure is given as a SMILES string.

A short description of this experiment: Inhibition of recombinant human GST-tagged EGFR L858R mutant cytoplasmic domain expressed in baculovirus expression system using FAM-labeled peptide as substrate after 10 mins by mobility shift assay.
What is called IC50 is the concentration that inhibits the measured activity by half. On to `COc1ccc(OC)c(Nc2cc(Nc3ccc(F)cc3)ncn2)c1`, for which the IC50 was 230 nM.
`CCOc1ccc(Nc2cc(NC(=O)c3ccccc3)ncn2)cc1`: the IC50 was 1210 nM.
The result for `O=C(O)CCCC(=O)Nc1cc(Nc2ccc(Cl)cc2)ncn1` reads 1320 nM.
The result for `O=C(O)CCCC(=O)Nc1cc(Nc2cccc(Br)c2)ncn1` reads over 10000 nM; that for `COc1ccc(Nc2cc(NC(=O)c3ccccc3)ncn2)cc1`, 60 nM; that for `COc1cccc(Nc2cc(Nc3ccc(S(N)(=O)=O)cc3)ncn2)c1`, 1850 nM.
Turning to `O=C(Nc1cc(Nc2ccc(Cl)cc2)ncn1)c1ccc(F)cc1`, the IC50 was 1610 nM.
`CCOC(=O)c1ccc(Nc2cc(Nc3cccc(OC)c3)ncn2)cc1`: the IC50 worked out at 1740 nM.
Consider `COc1ccc(OC)c(Nc2cc(NC(=O)CCCC(=O)O)ncn2)c1`, for which the IC50 was over 10000 nM.
The result for `O=C(O)CCCC(=O)Nc1cc(Nc2ccccc2)ncn1` reads 183 nM; that for `COc1cccc(Nc2cc(NC(=O)CCCC(=O)O)ncn2)c1`, 31 nM; that for `COc1cccc(Nc2cc(Nc3cccc(Cl)c3)ncn2)c1`, 1570 nM.
The result for `COc1ccc(OC)c(Nc2cc(Nc3ccc(S(N)(=O)=O)cc3)ncn2)c1` reads 619 nM; that for `CCNc1cc(Nc2cccc(Cl)c2)ncn1`, over 10000 nM; that for `CCOC(=O)c1ccc(Nc2cc(NC(=O)CCCC(=O)O)ncn2)cc1`, 69 nM.
For `O=C(O)CCCC(=O)Nc1cc(N2CCOCC2)ncn1` the value was 27 nM; for `CCOC(=O)CCCC(=O)Nc1cc(Nc2cccc(Cl)c2)ncn1`, over 10000 nM.
As to `CCOC(=O)CCC(=O)Nc1cc(Nc2cccc(Br)c2)ncn1`, the IC50 stood at 1340 nM.
As for `COc1ccc(OC)c(Nc2cc(NCCc3cccs3)ncn2)c1`, the IC50 was determined as 167 nM.
For the compound `COc1cc(Nc2cc(Nc3ccc(Cl)cc3)ncn2)cc(OC)c1OC`, the IC50 is over 10000 nM.
`COc1ccc(OC)c(Nc2cc(Nc3ccc(N4CCN(C)CC4)cc3)ncn2)c1`: the IC50 was determined as 167 nM.
